Earlier results, collected in patent publication US20230065964A1, “COMPOSITION FOR ENHANCING UROLITHIN PRODUCTION IN A HUMAN SUBJECT” (Migalis ApS, priority 2020, published 2023).

Columns and labels:
[1] = system: skeletal muscle of humans; settings: 28 days oral administration, 500 mg/d and 1000 mg/d
Chaenorhabditis elegans = settings: for Pharyngeal pumping rate and mobility: during aging

Compound	mitochondrial biogenesis in the skeletal muscle [1]	Pharyngeal pumping rate and mobility (Chaenorhabditis elegans)	mitochondrial biogenesis (Chaenorhabditis elegans; older worms)	mitophagy (Chaenorhabditis elegans; throughout the duration of the treatment)	Lean muscle mass (old mice)	greater level of spontaneous exercise (muscle function) (old mice) [%]	greater running endurance (endurance capacity) (old mice) [%]	expression of autophagy and mitophagy transcripts (old mice; molecular level)
O=c1oc2cc(O)ccc2c2ccc(O)cc12 [Urolithin A, urolithin A]	stimulated	improved	activated	activated mitophagy	did not increase	57	42	general tendency for a higher expression
O=c1oc2cc(O)ccc2c2cc(O)c(O)cc12 [urolithin C]		mild to no benefit						
O=c1oc2c(O)c(O)ccc2c2cc(O)c(O)cc12 [urolithin D]		mild to no benefit						
